Among the test systems are ACHN renal; BT-549 breast; DU-145 prostate; MDA-MB-231 breast; MDA-MB-435; NCI-H23 lung; NCI/ADR-RES ovarian; PC-3 prostate; DLD-1 colon; KM20L2 colon; P388/ADR leukemia; HOP-18 NSCLC.
Common to all, as to test: NCI tumour cell line growth inhibition, 48 h

The structures appear in SMILES notation.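 Briefly, cells in 96-well plates were exposed to five compound concentrations for 48 h, and endpoints were estimated by linear interpolation. At the GI50, growth is halved. TGI: total growth inhibition.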

As for `CC(=O)Oc1ccc2c(c1)oc1c3ccc(OC(C)=O)cc3n(C)c(=O)c21`, the TGI in the assay on ACHN renal, with BT-549 breast, with DU-145 prostate, with MDA-MB-231 breast, with MDA-MB-435 and in the assay on NCI-H23 lung was above 100 µM each time. Further, the results for the TGI with NCI/ADR-RES ovarian and in the assay with PC-3 prostate were 51.7 µM and above 100 µM, respectively.

Regarding `O=[N+]([O-])c1ccccc1NC1c2ccccc2Oc2ccccc21`, the GI50 is 5.93 µM in the assay with ACHN renal; 43 µM with DU-145 prostate; 3.95 µM in the assay with MDA-MB-231 breast; 2.5 µM in the assay with MDA-MB-435; 9.67 µM in the assay on NCI-H23 lung; 4.03 µM with NCI/ADR-RES ovarian. For the same molecule, in the assay with PC-3 prostate, the GI50 was 5.88 µM. For the same molecule, the TGI in the assay on ACHN renal is above 100 µM; in the assay with DU-145 prostate, above 100 µM; in the assay with MDA-MB-231 breast, 66.6 µM; with MDA-MB-435, 6.64 µM; with NCI-H23 lung, above 100 µM; with NCI/ADR-RES ovarian, above 100 µM. This molecule also returned a TGI in the assay with PC-3 prostate above 100 µM.

`CCN(CC)CCCNc1ncc(C)c2[nH]c3ccncc3c12`: the TGI is above 79.9 µM in the assay with DLD-1 colon; 31 µM in the assay with KM20L2 colon; 34.6 µM in the assay on NCI-H23 lung; above 100 µM with NCI/ADR-RES ovarian; above 100 µM with P388/ADR leukemia.

As to `COC(=O)c1cccc(N[C@@H]2c3cc4c(cc3C(c3cc(OC)c(O)c(OC)c3)[C@H]3C(=O)OCC32)OCO4)c1` (some centres not stated), the TGI in the assay with DLD-1 colon is 15 µM; in the assay on HOP-18 NSCLC, 21.6 µM; with KM20L2 colon, above 32.7 µM; in the assay on NCI-H23 lung it was 4.01 µM; in the assay on NCI/ADR-RES ovarian, above 85.1 µM; with P388/ADR leukemia it was 1.58 µM.

`N=C(N)c1ccc(-c2ccc(-c3ccccc3)s2)cc1`: the GI50 is 1.67 µM in the assay with ACHN renal; 3.22 µM in the assay on BT-549 breast; 1.75 µM with DU-145 prostate; 1.43 µM in the assay on MDA-MB-231 breast; 1.66 µM with MDA-MB-435; 2 µM in the assay with NCI-H23 lung. The GI50 in the assay on PC-3 prostate is 1.76 µM. In addition, the TGI in the assay with ACHN renal was found to be 3.03 µM; in the assay with BT-549 breast, 19.9 µM; with DU-145 prostate, 3.17 µM; with MDA-MB-231 breast, 2.87 µM; in the assay on MDA-MB-435, 3.03 µM; with NCI-H23 lung it was 4.53 µM. Further, in the assay with PC-3 prostate, the TGI turned out to be 3.47 µM.

On to `S=P1(N2CCCCC2)Oc2ccc3ccccc3c2-c2c(ccc3ccccc23)O1`, for which the TGI in the assay on DLD-1 colon, with HOP-18 NSCLC, with KM20L2 colon, in the assay with NCI-H23 lung, in the assay on NCI/ADR-RES ovarian and with P388/ADR leukemia was above 100 µM in each case.

For the molecule `CCCCCCCC/C=C\CCCCCCCC(=O)O`, the TGI in the assay on DLD-1 colon is 221 µM; with KM20L2 colon it was above 500 µM; in the assay with NCI-H23 lung, 146 µM; with NCI/ADR-RES ovarian, 196 µM; in the assay with P388/ADR leukemia, 200 µM.

For the molecule `Cc1cc(C)c2c(c1)CC1(Cc3c(C)ccc(C)c3C1=O)C2=O` (configuration not stated), the TGI in the assay on ACHN renal, in the assay on BT-549 breast, in the assay on DU-145 prostate, with MDA-MB-231 breast, in the assay with MDA-MB-435 and in the assay on NCI/ADR-RES ovarian was above 100 µM in each case. The same molecule yielded a TGI with PC-3 prostate above 100 µM.

As for `O=C(O)CS`, the TGI in the assay with DLD-1 colon, with KM20L2 colon and in the assay with NCI-H23 lung was above 100 µM each time.

As for `COc1cc(/C=C/c2cc(/C=C/c3ccc(O)c(OC)c3)nc(N)n2)ccc1O`, the GI50 is 2.54 µM with ACHN renal; 2.4 µM in the assay on DU-145 prostate; 1.45 µM in the assay on MDA-MB-231 breast; 2.88 µM in the assay with NCI/ADR-RES ovarian; 1.48 µM with PC-3 prostate. For the same molecule, the TGI was found to be 7.88 µM with ACHN renal; 6.31 µM in the assay on DU-145 prostate; 4.08 µM with MDA-MB-231 breast; 18.8 µM in the assay on NCI/ADR-RES ovarian; 5.57 µM in the assay on PC-3 prostate.

On to `CCNc1nnc(-c2nsc3ccccc23)s1`, for which the TGI in the assay with ACHN renal was above 100 µM; with HOP-18 NSCLC it was 91.6 µM; in the assay on KM20L2 colon, above 100 µM; in the assay on NCI-H23 lung, above 100 µM.

With `O=C1C=CC2=[N+]([O-])C(c3ccccc3)(c3ccccc3)C(=Nc3ccccc3)C2=C1`, the TGI was determined as 3.36 µM in the assay with ACHN renal; 3.14 µM in the assay on DLD-1 colon; 7.52 µM with HOP-18 NSCLC; 5.22 µM with KM20L2 colon; 5.64 µM in the assay with NCI-H23 lung.

`C=C1C(=O)C[C@@]23CCC[C@@]12CC(OCOC)C3` (some centres not stated): the TGI was determined as 4.81 µM in the assay on DLD-1 colon; 11.5 µM in the assay with HOP-18 NSCLC; 9.02 µM with KM20L2 colon; 11.1 µM in the assay with NCI-H23 lung; 9.5 µM in the assay on NCI/ADR-RES ovarian; 2.09 µM with P388/ADR leukemia.

On to `CC(C)CCC[C@@H](C)C1CCC2[C@@H]3CC=C4C[C@@H](C(=O)NCC[N+](C)(C)CCCS(=O)(=O)[O-])CC[C@]4(C)C3CC[C@@]21C` (some centres not stated), for which the TGI in the assay on ACHN renal was determined as 32.5 µM; with DLD-1 colon, 49.7 µM; with HOP-18 NSCLC it was 35.8 µM; in the assay with KM20L2 colon, 30.4 µM.
